Among the data in US9630962B2, “4-amino-6-(2,6-dichlorophenyl)-2-(phenylamino)-pyrido[2,3-d]pyrimidin-7(8H)-one derivatives, synthesis and uses thereof” (INSTITUT QUÍMIC DE SARRIÁ, CETS FUNDACIÓ PRIVADA, priority 2013, dated 2017) are remaining activity and GI50 values, retold here.

Like-named read-outs stand apart in the source and are kept apart here.

One assay has as its target T1, BTK (Homo sapiens, UniProt Q06187).
T1 construct: purchased ProQinase; host or cells: Sf9 insect cells or E. coli (not specified per kinase)
Briefly: Radiometric protein kinase assay (33PanQinase Activity Assay), residual activity. The assay is classed as biochemical. The note with it: 10 μM (1×10^−05 M) test compound, singlicate. On the procedure:
(§1) The kinase inhibition profile of compounds of formula (I) was evaluated at Proqinase (http://www.proqinase.conn) by measuring residual activity values at a concentration of 10 μM of the test compound in singlicate in front of the following kinases: BTK, LYN, SYK aa1-635 using the following protocol:
(§2) The compounds were dissolved to 1×10^−03 M stock solutions in 100% DMSO. Subsequently, 100 μl of each stock solution were transferred into wells A3-F12 of a microtiter plate (“master plate”). Wells A1-F2 were filled with 100 μl 100% DMSO as controls. 5×10 μl of the master plate were aliquoted into 5 copy plates, which were stored at −20° Celsius until use. For the testing of each group of up to 8 kinases, one copy plate was used.
(§3) In the process, 90 μl H2O were added to each well of a copy plate. To minimize precipitation, the H2O was added to each well only a few minutes before the transfer of the compound solutions into the assay plates. The plate was shaken thoroughly, resulting in a “compound dilution plate” with a compound concentration of 1×10^−04 M/10% DMSO. This plate was used for the transfer of 5 μl compound solution into the assay plates. The final volume of the assay was 50 μl. All compounds were tested at 1×10^−05 M in singlicate. The final DMSO concentration in the reaction cocktails was 1% in all cases. The compound dilution plates were disposed at the end of each working day.
(§4) A radiometric protein kinase assay (^33PanQinase® Activity Assay) was used for measuring the kinase activity of the corresponding protein kinases. All kinase assays were performed in 96-well FlashPlates™ from Perkin Elmer (Boston, Mass., USA) in a 50 μl reaction volume. The reaction cocktail was pipetted in 4 steps in the following order: • 10 μl of non-radioactive ATP solution (in H2O) • 25 μl of assay buffer/[γ-33P]-ATP mixture • 5 μl of test sample in 10% DMSO • 10 μl of enzyme/substrate mixture
(§5) The protein kinase reaction cocktails were incubated at 30° C. for 60 minutes. The reaction was stopped with 50 μl of 2% (v/v) H3PO4, plates were aspirated and washed two times with 200 μl 0.9% (w/v) NaCl. All assays were performed with a BeckmanCoulter Biomek 2000/SL robotic system. Incorporation of ^33Pi (counting of “cpm”) was determined with a microplate scintillation counter (Microbeta, Wallac).
(§6) All protein kinases provided by ProQinase were expressed in Sf9 insect cells or in E. coli as recombinant GST-fusion proteins or His-tagged proteins. All kinases were produced from human cDNAs and purified by either GSH-affinity chromatography or immobilized metal. Affinity tags were removed from a number of kinases during purification. The purity of the protein kinases was examined by SDS-PAGE/Coomassie staining, the identity was checked by mass spectroscopy.
(§7) For each kinase, the median value of the cpm of six wells of column 1 of each assay plate was defined as “low control” (n=6). This value reflects unspecific binding of radioactivity to the plate in the absence of a protein kinase but in the presence of the substrate. Additionally, for each kinase the median value of the cpm of six wells of column 2 of each assay plate was taken as the “high control”, i.e. full activity in the absence of any inhibitor (n=6). The difference between high and low control of each enzyme was taken as 100% activity.
(§8) As part of the data evaluation the low control of each kinase was subtracted from the high control value as well as from their corresponding “compound values”. The residual activity (in %) for each compound well was calculated by using the following formula: Res. Activity (%)=100×[(signal of compound −low control)/(high control −low control)] Results
(§9) The singlicate residual activity values of the tested compounds at one concentration (1×10^−05 M) in singlicate in the required protein kinase assays are given.

Another assay has as its target T2, LYN (Homo sapiens, UniProt P07948).
T2 construct: purchased ProQinase; host or cells: Sf9 insect cells or E. coli (not specified per kinase)
The description is as above. The assay is classed as biochemical. The note with it: 10 μM (1×10^−05 M) test compound, singlicate. On the procedure: as §1, §2, §3, §4, §5, §6, §7, §8, §9

A further assay concerns CLL cell lines. Briefly: MTT proliferation assay, growth inhibition. The assay is classed as cell-based. The note with it: n = 3 cell lines. On the procedure:
(§10) Cell culture: cell lines were grown in suitable culture media at 37° C. in a humidified atmosphere containing 5% CO2. The following MCL cell lines were used in the assays: Rec-1, HBL-2, UPN-1, Jeko-1, JVM-2, Maver-1, Mino, Granta-519, and Z-138. The following CLL cell lines were used in the assays: MEC-2, JVM-13, and MEC-1. The following FL cell lines were used in the assays: DoHH-2, WSU-NHL, WSU-FSCCL, and SC-1. The following DLBCL cell lines were used in the assays: OCI-LY8, SUDHL-8, U-2932, and SUDHL-16. The following media were used for the indicated cell lines: RPMI 1640+10% foetal bovine serum (FBS) for Rec-1, HBL-2, UPN-1, JVM-2, MAVER, Z138, Mino, JVM-13, WSU-NHL, WSU-FSCCL, DOHH2, SC-1 and U2932; RPMI 1640+20% FBS for Jeko-1, SUDHL-8 and SUDHL-16; DMEM+10% FBS for Granta-519; IMDM+10% FBS for MEC-1 and MEC-2; IMDM+20% FBS for OCI-LY8.
(§11) Analysis of the growth inhibition is carried out using the MTT (Thiazolyl Blue Tetrazolium Bromide) proliferation assay: cells grown in exponential phase were seeded in 96 well plates at 0.5×10^6 cell/ml and treated with 4-amino-6-(2,6-dichlorophenyl)-8-methyl-2-(4-(4-methylpiperazin-1-yl)phenylamino)pyrido[2,3-d]pyrimidin-7(8H)-one (Example 5) at the doses of 0.5, 1.5, 10, 20, 50 and 100 μM. After 24 h or 48 h, MTT reagent was added to each well, incubated for 2 h and plates were then read in a Synergy-HT Multi-Mode Microplate Reader (Biotek).

Another assay has as its system DLBCL cell lines. Briefly: MTT proliferation assay, growth inhibition. The assay is classed as cell-based. The note with it: n = 4 cell lines. On the procedure: as §10, §11
In a further assay the test system is FL cell lines. Briefly: MTT proliferation assay, growth inhibition. The assay is classed as cell-based. The following applies: n = 4 cell lines. On the procedure: as §10, §11
For orientation: Formazan colour is commonly taken as a measure of viable cells.

A further assay concerns MCL cell lines. Nature of the assay: MTT proliferation assay, growth inhibition. The format is cell-based. The following applies: N9, n = 9 cell lines. On the procedure:
as §10, §11

Assay [1] concerns panel of 20 NHLs cell lines. Nature of the assay: MTT proliferation assay, growth inhibition. The format is cell-based. The following applies: all tested cell lines. On the procedure: as §10, §11
[2] abbreviates: 24 h, read-out: GI50 range at 24 h.
Where [3] appears, read: 24 h, read-out: Mean GI50 at 24 h.
Where [4] appears, read: 48 h, read-out: GI50 range at 48 h.
Where [5] appears, read: 48 h, read-out: Mean GI50 at 48 h.

T2 sequence (P07948 whole entry): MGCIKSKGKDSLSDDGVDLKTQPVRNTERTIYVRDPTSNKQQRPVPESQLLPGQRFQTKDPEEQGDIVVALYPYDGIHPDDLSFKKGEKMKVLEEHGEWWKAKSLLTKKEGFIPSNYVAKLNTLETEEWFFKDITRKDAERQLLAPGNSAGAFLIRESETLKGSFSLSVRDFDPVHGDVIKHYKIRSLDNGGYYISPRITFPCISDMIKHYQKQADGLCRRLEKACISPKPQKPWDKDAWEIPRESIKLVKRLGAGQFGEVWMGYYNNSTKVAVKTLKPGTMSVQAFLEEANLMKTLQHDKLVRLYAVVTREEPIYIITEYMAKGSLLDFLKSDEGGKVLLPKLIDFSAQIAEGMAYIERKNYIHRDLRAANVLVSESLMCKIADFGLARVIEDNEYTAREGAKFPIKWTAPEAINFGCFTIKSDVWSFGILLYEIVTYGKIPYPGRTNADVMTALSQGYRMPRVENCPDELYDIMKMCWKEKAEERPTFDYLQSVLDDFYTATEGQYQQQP
T1 sequence (Q06187 whole entry): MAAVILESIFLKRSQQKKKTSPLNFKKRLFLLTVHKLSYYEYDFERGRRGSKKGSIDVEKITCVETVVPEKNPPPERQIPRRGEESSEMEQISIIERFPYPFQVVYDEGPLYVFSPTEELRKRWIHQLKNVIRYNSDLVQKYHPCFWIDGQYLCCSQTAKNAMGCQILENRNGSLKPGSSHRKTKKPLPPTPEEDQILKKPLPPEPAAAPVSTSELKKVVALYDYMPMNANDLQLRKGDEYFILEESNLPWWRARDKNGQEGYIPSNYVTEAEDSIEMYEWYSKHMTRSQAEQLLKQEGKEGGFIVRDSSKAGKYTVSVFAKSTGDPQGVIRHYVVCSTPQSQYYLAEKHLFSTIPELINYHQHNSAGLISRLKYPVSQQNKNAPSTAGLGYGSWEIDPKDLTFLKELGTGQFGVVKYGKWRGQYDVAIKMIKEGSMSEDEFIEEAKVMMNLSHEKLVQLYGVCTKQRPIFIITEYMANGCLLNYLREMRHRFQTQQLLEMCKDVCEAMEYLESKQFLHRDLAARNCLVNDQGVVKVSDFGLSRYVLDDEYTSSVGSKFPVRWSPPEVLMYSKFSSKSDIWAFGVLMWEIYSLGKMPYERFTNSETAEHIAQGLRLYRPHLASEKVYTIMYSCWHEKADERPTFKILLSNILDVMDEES

As for `CN1CCN(c2ccc(Nc3nc(N)c4cc(-c5c(Cl)cccc5Cl)c(=O)n(C)c4n3)cc2)CC1` [Example 5, 4-amino-6-(2,6-dichlorophenyl)-8-methyl-2-(4-(4-methylpiperazin-1-yl)phenylamino)pyrido[2,3-d]pyrimidin-7(8H)-one], the remaining activity (in general, the signal under treatment as a percentage of the control signal) at 10 µM is 3% on BTK and -1% on LYN. The GI50 – broadly, the concentration at which growth is held to half of that of the control – was 5.3 to 6.8 µM in the assay on CLL cell lines (setting [2]); 5.9 µM in the assay on CLL cell lines (setting [3]); 4.5 to 5.5 µM with CLL cell lines (setting [4]); 4.9 µM in the assay with CLL cell lines (setting [5]); 4.3 to 6.9 µM in the assay with DLBCL cell lines (setting [2]); 5.4 µM in the assay on DLBCL cell lines (setting [3]). Also, the GI50 with DLBCL cell lines (setting [4]) was 3.8 to 7.2 µM; in the assay on DLBCL cell lines (setting [5]) it was 5 µM; in the assay on FL cell lines (setting [2]), 2.6 to 4.9 µM; in the assay with FL cell lines (setting [3]), 3.7 µM; in the assay on FL cell lines (setting [4]), 1.4 to 4.4 µM; in the assay with FL cell lines (setting [5]), 2.7 µM. Moreover, the GI50 with MCL cell lines (setting [2]) was 1.3 to 5.9 µM; with MCL cell lines (setting [3]), 3.6 µM; in the assay with MCL cell lines (setting [4]) it was 2.2 to 3.6 µM; in the assay on MCL cell lines (setting [5]), 3 µM; in assay [1] (24 h, read-out: GI50 mean), 4.3 µM; in assay [1] (24 h, read-out: GI50 range), 1.3 to 6.9 µM. In addition, the 50% growth inhibitory concentration (GI50) was 3.6 µM in assay [1] (48 h, read-out: GI50 mean) and 1.4 to 7.2 µM in assay [1] (48 h, read-out: GI50 range).
